What was measured:
rabOBP3 [1] = biological target: T1, rabOBP3; assay: competitive displacement of fluorescent probe 1-NPN; format: binding, Oryctolagus cuniculus
T1 construct: native mature protein (161 amino acids) purified from rabbit seminal fluid, delipidated with dichloromethane

rabOBP3 [2] = biological target: T1, rabOBP3; assay: fluorescent probe titration (direct fluorescence binding); set-up: species or system Oryctolagus cuniculus

Kd (rabOBP3 [1]) [µM] | Structure (SMILES) | Kd (rabOBP3 [2]) [µM]
11.2 | CC(C)=CCC/C(C)=C/CO [geraniol] | 
 | c1ccc(Nc2cccc3ccccc23)cc1 [N-phenyl-1-naphthylamine] | 3.8
7.8 | CCCCCC/C=C/C=O [2-nonenal] | 

Structure (SMILES) | Kd (rabOBP3 [1]) [µM] | Kd (rabOBP3 [2]) [µM]
O=c1c(O)c(-c2ccc(O)c(O)c2)oc2cc(O)cc(O)c12 [quercetin] | 2.2 | 
